The source made the active and inactive calls.
Key:
H4 = experiment: Luminescence Cell-Based Dose Response HTS to Identify Activators of 5'UTR Stem-Loop Driven Prion Protein mRNA Translation in H4 Neuroglioblastoma Cells. [Related pubchem assays: 1829 (Project Summary), 1814 (Primary HTS)]; type: functional; conditions: Homo sapiens
[1] = Luminescence Cell-Based Dose Confirmation HTS to Identify Activators of 5'UTR Stem-Loop Driven Alpha-Synuclein mRNA Translation in H4 Neuroglioblastoma Cells. [Related pubchem assays: 1829 (Project Summary), 1814 (Primary HTS)]; type: functional
[2] = Luminescence Cell-Based Dose Response HTS to Identify Activators of Luciferase Translation or Activity in H4 […] Cells. [Related pubchem assays: 1829 (Project Summary), 1814 (Primary HTS)]; type: functional
[3] = target: Heat shock protein HSP 90-alpha (Homo sapiens, UniProt P07900); type: functional, organism-based
INS1 = experiment: beta cell apoptosis inhibitors, cytokine rescue, dose response, luminescence, retest (AID 449756); type: functional, cell-based; conditions: Rattus norvegicus;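 also: cell death triggered by IL-1 beta plus TNF-alpha plus IFN-gamma mixture; protective hits raise ATP signal compared with cytokine alone wells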
[4] = target: T1, Microphthalmia-associated transcription factor (Homo sapiens, UniProt O75030); experiment: TRPM1 promoter luciferase signal decrease, dose response, MITF inhibitor project, cell-based, SK-MEL-5, cherry-picked, set 3 (AID 493073); type: functional
T1 sequence (O75030 whole entry): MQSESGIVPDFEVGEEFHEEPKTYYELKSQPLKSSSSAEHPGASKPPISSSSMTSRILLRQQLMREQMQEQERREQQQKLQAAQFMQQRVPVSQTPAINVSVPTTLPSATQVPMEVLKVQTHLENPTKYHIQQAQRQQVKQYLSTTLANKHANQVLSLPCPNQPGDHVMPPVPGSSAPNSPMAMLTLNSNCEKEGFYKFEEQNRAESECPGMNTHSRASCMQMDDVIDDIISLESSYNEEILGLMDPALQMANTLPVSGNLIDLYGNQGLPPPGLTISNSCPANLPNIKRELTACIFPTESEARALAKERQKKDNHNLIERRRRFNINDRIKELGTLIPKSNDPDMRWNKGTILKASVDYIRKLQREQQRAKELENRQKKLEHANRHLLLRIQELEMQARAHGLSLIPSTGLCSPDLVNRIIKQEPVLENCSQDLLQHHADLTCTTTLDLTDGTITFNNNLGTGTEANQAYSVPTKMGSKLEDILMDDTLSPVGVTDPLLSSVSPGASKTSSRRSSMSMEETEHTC

Nonstructural protein 1 = Nonstructural protein 1 (Influenza A virus, UniProt Q194T2); type: functional, Influenza A virus (A/California/07/2009(H1N1))
Protein RecA = target: T2, Protein RecA (Mycobacterium tuberculosis, UniProt P9WHJ3); experiment: Fluorescence Cell-Free Homogeneous Dose Retest to Identify Inhibitors of RecA-Intein Splicing Activity. [Related pubchem assays (depositor defined):AID2097, AID2223, AID489010, AID492950]; type: functional
T2 sequence (P9WHJ3 whole entry): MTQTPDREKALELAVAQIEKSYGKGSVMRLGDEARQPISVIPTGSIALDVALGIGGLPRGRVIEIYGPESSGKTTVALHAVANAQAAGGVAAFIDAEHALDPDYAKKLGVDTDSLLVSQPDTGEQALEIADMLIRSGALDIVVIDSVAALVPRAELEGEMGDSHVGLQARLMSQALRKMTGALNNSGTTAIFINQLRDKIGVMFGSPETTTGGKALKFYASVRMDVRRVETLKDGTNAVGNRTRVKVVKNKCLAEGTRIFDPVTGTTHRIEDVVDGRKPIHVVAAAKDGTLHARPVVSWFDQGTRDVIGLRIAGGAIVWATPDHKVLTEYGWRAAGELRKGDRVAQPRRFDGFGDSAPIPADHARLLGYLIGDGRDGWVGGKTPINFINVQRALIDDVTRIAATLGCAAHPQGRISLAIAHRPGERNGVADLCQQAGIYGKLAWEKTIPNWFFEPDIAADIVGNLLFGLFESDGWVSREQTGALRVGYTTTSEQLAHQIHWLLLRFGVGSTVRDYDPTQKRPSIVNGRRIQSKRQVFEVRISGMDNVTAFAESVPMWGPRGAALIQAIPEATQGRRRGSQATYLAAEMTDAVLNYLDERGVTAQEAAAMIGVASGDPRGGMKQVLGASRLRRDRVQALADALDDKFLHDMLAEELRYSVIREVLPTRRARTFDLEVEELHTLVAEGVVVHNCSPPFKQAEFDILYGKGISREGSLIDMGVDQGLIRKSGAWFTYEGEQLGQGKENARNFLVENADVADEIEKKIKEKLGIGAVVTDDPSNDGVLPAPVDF

[5] = target: T3, Replicative DNA helicase DnaB (Mycobacterium tuberculosis, UniProt P9WMR3); experiment: DnaB intein splicing inhibitors, dose response, biochemical, cell-free fluorescence (AID 449749); type: functional
T3 sequence (P9WMR3 whole entry): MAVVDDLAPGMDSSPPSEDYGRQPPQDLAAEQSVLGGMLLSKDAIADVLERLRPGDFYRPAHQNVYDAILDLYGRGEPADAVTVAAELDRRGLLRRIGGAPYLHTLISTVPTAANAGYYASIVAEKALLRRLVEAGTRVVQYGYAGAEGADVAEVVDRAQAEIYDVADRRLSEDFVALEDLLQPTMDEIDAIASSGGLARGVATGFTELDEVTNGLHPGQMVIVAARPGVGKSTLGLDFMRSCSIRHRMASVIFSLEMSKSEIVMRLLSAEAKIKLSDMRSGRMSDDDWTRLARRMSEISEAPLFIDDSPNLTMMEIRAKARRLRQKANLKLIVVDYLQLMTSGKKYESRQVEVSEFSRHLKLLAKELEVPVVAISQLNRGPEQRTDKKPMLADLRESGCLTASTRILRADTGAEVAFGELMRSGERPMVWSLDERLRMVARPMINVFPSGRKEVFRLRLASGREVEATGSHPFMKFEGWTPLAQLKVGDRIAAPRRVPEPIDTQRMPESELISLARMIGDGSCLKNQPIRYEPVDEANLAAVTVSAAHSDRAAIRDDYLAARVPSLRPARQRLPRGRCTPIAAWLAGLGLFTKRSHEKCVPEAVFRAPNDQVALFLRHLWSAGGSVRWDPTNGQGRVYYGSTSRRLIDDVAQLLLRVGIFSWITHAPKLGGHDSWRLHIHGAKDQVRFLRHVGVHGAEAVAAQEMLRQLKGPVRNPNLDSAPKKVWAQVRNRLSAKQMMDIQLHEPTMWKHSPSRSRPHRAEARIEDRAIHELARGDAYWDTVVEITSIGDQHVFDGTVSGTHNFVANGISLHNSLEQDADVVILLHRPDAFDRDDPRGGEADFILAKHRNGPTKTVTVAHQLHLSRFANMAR

[6] = target: T4, Heat shock factor protein 1 (Mus musculus, UniProt P38532); experiment: HSF1 potentiators in luciferase reporter cells, confirmation, cell-based, NIH3T3, luminescence, dose retest (AID 435004); type: functional;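 also: stress induced by proteasome inhibitor MG132 added 30 min after compound; luciferase reporter driven by HSF1 response element in NIH3T3 cells; actives raise luminescence as potentiators of the MG132 stress response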
T4 sequence (P38532 whole entry): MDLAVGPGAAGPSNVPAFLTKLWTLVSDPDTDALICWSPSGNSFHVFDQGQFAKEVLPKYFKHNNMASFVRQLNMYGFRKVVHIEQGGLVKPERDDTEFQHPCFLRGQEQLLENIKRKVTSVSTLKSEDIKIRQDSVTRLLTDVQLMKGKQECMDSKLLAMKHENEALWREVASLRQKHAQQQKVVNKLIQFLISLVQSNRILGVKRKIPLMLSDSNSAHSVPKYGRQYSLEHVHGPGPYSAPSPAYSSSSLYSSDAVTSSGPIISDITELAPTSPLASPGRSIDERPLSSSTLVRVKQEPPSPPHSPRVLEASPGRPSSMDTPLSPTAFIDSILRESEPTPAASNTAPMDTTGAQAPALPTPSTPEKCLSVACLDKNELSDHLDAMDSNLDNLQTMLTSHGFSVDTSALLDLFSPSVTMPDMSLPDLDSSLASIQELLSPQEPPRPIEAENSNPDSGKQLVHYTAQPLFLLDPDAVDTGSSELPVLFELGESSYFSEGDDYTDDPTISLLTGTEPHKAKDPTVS

[7] = human group III sPLA2 inhibitors, dose response, biochemical, QFRET, IC50 (AID 743457);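 also: green fluorescence rise as the enzyme cleaves BODIPY PC-A2 in liposomes; potency for inhibition of the enzyme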
Estrogen receptor beta = Estrogen receptor beta (Homo sapiens, UniProt Q92731);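 also: recombinant ER-beta bound to coactivator SRC1 peptide in presence of estradiol agonist; inhibitors block coactivator peptide binding and lower the FRET signal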
Large T antigen = Large T antigen (Simian virus 40, UniProt P03070); type: functional, Betapolyomavirus macacae;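 also: Confirmatory-stage PubChem screen for compounds that inhibit SV40 T antigen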
[8] = intracellular Trypanosoma cruzi inhibitors in host cells – cell-based, plate reader, cherry-pick samples, set 3, dose response (AID 651818); type: functional;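 also: compounds incubated with infected cells for about four days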
[9] = IGROV1 ovarian cancer cell cytotoxicity, dose response, PAX8 inhibitor project, plate reader, dry powder samples (AID 743043); type: functional, cell-based; conditions: IGROV-1
Paired box protein Pax-8 = Paired box protein Pax-8 (Homo sapiens, UniProt Q06710); experiment: inhibitors of PAX8-driven TPO luciferase reporter, dose response, RMG-I cells, cherry-pick (AID 687027); type: functional, cell-based;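 also: luciferase reporter driven by Pax8 target thyroperoxidase promoter measured by SteadyGlo luminescence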
[10] = target: T5, DNA repair protein RAD52 homolog (Homo sapiens, UniProt P43351); type: functional, biochemical
T5 sequence (P43351 whole entry): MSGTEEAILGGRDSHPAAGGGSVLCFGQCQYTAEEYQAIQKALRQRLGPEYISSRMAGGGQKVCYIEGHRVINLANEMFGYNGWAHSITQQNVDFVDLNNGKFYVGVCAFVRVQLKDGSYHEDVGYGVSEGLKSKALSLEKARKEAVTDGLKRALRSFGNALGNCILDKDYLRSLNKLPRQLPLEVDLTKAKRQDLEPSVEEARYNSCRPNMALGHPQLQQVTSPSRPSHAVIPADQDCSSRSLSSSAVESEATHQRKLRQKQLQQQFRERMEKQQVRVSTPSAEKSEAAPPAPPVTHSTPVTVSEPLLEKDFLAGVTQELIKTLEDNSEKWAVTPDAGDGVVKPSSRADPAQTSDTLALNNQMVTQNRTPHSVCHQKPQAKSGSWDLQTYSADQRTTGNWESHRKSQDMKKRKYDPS

Estrogen receptor beta, sequence (Q92731 whole entry): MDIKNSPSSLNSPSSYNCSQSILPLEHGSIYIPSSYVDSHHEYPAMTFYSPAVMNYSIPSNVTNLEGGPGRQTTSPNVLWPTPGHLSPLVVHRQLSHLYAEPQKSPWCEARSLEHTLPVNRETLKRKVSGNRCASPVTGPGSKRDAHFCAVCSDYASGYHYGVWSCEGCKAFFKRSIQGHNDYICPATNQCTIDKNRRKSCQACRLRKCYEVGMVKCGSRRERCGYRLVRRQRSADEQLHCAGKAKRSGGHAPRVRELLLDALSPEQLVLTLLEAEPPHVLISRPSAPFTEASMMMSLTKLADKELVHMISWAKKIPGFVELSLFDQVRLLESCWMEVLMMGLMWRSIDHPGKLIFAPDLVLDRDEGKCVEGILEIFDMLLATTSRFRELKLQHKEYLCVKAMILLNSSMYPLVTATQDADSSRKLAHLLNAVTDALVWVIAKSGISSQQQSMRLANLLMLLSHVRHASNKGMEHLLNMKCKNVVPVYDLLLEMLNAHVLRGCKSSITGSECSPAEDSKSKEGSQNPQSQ
Paired box protein Pax-8, sequence (Q06710 whole entry): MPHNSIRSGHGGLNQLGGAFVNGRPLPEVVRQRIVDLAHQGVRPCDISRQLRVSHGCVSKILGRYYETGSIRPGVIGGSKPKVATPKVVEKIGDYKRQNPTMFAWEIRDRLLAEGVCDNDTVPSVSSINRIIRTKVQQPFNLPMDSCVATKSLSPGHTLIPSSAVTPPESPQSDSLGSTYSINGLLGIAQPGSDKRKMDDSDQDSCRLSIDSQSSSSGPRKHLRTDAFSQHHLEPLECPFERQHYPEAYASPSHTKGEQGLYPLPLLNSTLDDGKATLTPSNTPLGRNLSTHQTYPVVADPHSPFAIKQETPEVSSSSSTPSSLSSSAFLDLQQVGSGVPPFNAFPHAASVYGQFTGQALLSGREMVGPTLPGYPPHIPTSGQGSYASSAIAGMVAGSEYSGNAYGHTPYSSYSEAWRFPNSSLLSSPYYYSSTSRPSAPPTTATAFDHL
Nonstructural protein 1, sequence (Q194T2 whole entry): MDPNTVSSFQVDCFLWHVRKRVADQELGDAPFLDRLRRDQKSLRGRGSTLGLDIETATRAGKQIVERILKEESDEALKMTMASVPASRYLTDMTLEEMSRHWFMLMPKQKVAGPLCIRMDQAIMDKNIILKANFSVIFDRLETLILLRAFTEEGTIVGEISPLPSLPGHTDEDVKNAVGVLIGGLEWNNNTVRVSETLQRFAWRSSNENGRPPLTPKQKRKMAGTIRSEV
Large T antigen, sequence (P03070 whole entry): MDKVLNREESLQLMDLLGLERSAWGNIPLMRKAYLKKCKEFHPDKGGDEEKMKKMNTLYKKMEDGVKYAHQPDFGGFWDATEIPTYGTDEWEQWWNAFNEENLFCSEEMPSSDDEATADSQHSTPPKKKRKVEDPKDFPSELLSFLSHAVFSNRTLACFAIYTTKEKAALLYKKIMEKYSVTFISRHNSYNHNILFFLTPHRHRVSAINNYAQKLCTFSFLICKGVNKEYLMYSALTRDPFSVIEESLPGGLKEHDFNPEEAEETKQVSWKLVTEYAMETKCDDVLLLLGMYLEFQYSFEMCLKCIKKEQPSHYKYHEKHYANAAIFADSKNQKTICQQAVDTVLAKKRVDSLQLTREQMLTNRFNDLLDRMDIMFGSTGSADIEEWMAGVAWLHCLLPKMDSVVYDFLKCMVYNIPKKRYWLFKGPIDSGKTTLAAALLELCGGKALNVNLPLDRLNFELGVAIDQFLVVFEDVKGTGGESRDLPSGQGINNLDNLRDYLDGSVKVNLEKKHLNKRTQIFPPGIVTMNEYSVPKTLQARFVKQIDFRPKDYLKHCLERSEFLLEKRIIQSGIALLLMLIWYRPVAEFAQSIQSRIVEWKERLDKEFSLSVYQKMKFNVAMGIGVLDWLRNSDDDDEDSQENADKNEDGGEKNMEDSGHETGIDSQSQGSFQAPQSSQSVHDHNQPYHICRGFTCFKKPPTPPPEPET

## O=C1CC(c2ccccc2)=NN1c1nc(-c2ccccc2)cs1
H4
  EC50: > 120 µM (not active)
[1]
  EC50: 13.2 µM (active)
[2]
  EC50: 11.4 µM (active)
[3]
  AC50: 3.34 µM (active)

## CN(C)C1CCN(Cc2cc(COCc3ccccc3)c3cccnc3c2O)C1 (centres undefined)
INS1
  AC50: 2.78 µM (active)
[4]
  AC50: 9.99 µM (active)
Nonstructural protein 1
  IC50: 5.98 µM (active)

## Cc1c(C#N)c(NC(=O)CCl)n(Cc2ccccc2)c1C
Protein RecA
  EC50: 3.39 µM (active)
[4]
  AC50: 11.2 µM (active)
[5]
  AC50: 21.5 µM (active)
[6]
  EC50: > 260 µM (inactive)

## CCCn1c(N=C(S)Nc2ccccc2)nc2ccccc21
[7]
  IC50: 112 µM (inactive)

## Cc1cccc(-n2c(SCCC(=O)O)nnc2-c2cccs2)c1C
Estrogen receptor beta
  IC50: > 50 µM (not active)

## Nc1cccc(Nc2nc(OC(C(F)(F)F)C(F)(F)F)nc(OC(C(F)(F)F)C(F)(F)F)n2)c1
[7]
  IC50: > 122 µM (inactive)

## CCOC(=O)C(=NC(C)CC)NNc1cccc(C(F)(F)F)c1 (centres undefined)
[7]
  IC50: > 122 µM (inactive)

## Cc1sc2nc(C3CC3)nc(SCC(=O)NCc3ccco3)c2c1C
[3]
  AC50: 5.75 µM (active)

## Cc1ccc(NC(S)=NNC(=O)c2nnn(-c3ccccc3)c2C)cc1
[7]
  IC50: > 122 µM (inactive)

## CC(NC(=O)c1ccc(Br)cc1)c1ccc2c(c1)CCCC2 (centres undefined)
[3]
  AC50: 2.75 µM (active)

## N#Cc1c(N/C=C2\C(=O)NC(=O)N(Cc3ccco3)C2=O)sc2c1CCCC2
Large T antigen
  IC50: 32.6 µM (active)
Estrogen receptor beta
  IC50: > 50 µM (not active)

## CSC(=S)NN=C(C)c1cccc(C)n1
[3]
  AC50: 23.7 µM (active)
Nonstructural protein 1
  IC50: 1.1 µM (active)

## COc1ccc(S(=O)(=O)Nc2ccc3c(c2)C(=O)N([C@H](C)CO)C[C@H](C)[C@H](CN(C)C(=O)Nc2ccc(C(F)(F)F)cc2)OCCCC[C@@H](C)O3)cc1
[8]
  AC50: 2.64 µM (active)

## C[C@@H]1CN([C@H](C)CO)C(=O)c2cccc(NC(=O)NC3CCCCC3)c2O[C@@H]1CN(C)Cc1ccc(-c2ccccc2)cc1
[8]
  AC50: 3.37 µM (active)

## Cc1ccc(S(=O)(=O)Nc2ccc3c(c2)C(=O)N([C@H](C)CO)C[C@H](C)[C@H](CN(C)Cc2ccc(C(=O)Nc4ccccc4N)cc2)OCCCC[C@@H](C)O3)cc1
[8]
  AC50: 2.44 µM (active)

## C[C@H]1CN([C@@H](C)CO)C(=O)Cc2cc(NS(=O)(=O)c3ccc(F)cc3)ccc2O[C@@H]1CN(C)Cc1ccc(C(F)(F)F)cc1
[8]
  AC50: 4.8 µM (active)

## Cc1ccc(S(=O)(=O)Nc2cccc3c2O[C@@H](CN(C)Cc2ccc(-c4ccccc4)cc2)[C@@H](C)CN([C@H](C)CO)C3=O)cc1
[8]
  AC50: 3.16 µM (active)

## Cc1ccc(S(=O)(=O)Nc2cccc3c2O[C@@H](CN(C)Cc2ccc(C(=O)Nc4ccccc4N)cc2)[C@H](C)CN([C@@H](C)CO)C3=O)cc1
[8]
  AC50: 3.2 µM (active)

## Cc1ccccc1-c1ccc([C@@H]2[C@@H](CO)N3CCCCN(C(=O)NC4CCCC4)C[C@H]23)cc1
[9]
  AC50: 52.2 µM (active)
Paired box protein Pax-8
  AC50: 21.6 µM (active)

## C[C@@H]1CN([C@H](C)CO)C(=O)c2cc(NC(=O)Nc3ccc(F)cc3)ccc2O[C@@H](C)CCCCO[C@H]1CN(C)C(=O)C1CCCCC1
[9]
  AC50: 50.3 µM (active)
Paired box protein Pax-8
  AC50: 5.55 µM (active)

## COc1ccc2c(c1)c[n+](C)c1c3cc(OC)c(OC)cc3ccc21
[7]
  IC50: > 122 µM (inactive)
[10]
  AC50: 0.558 µM (active)

Reference: ChEMBL document CHEMBL1201862, “PubChem BioAssay data set” (2004)
